Source: patent US20250320213A1, “Nitrogen-Containing Heterocyclic Compounds” (Pfizer Inc., priority 2024, published 2025)

Molecular target: T1, STAT6 (Homo sapiens, UniProt P42226)
T1 construct: stably transfected HaCaT keratinocyte cell line, which expresses NanoLuc luciferase reporter gene under the transcriptional control of the STAT6 responsive promoter; endogenous in cells; host or cells: HaCaT keratinocyte reporter cell line (stably transfected with a NanoLuc reporter)
T1 sequence (P42226 1-847): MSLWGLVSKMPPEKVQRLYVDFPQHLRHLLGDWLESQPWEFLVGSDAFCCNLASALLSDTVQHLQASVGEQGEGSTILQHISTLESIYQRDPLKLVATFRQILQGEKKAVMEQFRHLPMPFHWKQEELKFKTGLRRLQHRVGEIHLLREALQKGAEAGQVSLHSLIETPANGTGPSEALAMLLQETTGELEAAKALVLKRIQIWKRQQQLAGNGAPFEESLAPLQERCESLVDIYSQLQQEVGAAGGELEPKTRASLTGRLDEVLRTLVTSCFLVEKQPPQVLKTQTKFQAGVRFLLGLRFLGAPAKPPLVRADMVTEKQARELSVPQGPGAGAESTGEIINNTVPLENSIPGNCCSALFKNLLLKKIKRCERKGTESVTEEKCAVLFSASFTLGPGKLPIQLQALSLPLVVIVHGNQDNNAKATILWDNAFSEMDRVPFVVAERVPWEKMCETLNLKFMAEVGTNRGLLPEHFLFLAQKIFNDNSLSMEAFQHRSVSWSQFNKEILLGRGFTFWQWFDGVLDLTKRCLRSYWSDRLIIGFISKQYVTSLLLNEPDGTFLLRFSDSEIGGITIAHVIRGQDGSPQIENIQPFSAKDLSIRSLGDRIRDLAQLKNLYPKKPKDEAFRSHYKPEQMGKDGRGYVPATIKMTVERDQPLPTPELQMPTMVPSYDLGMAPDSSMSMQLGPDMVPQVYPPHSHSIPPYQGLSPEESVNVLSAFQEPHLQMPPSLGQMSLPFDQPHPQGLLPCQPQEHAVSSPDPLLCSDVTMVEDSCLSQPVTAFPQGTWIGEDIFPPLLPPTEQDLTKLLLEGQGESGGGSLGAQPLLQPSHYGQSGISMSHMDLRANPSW
Assay: STAT6 Reporter Luciferase Assay (IL-13 stimulated HaCaT keratinocyte NanoLuc reporter cells)
Format: cell-based
Settings: IL-13 stimulated HaCaT STAT6 NanoLuc reporter cells; read-out: Reporter EC50
In short: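 IL-13 (0.12 nM, 4 h) stimulated STAT6 reporter activity in HaCaT cells after a 2 h compound pre-incubation; NanoLuc signal was measured.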

| SMILES | EC50 [nM] |
| --- | --- |
| CC(C)n1nc(C(=O)NCc2ccc(NC(=O)N(C)C)cc2)c2c1CCN(c1ccc(C(=O)N3C[C@H]4CCO[C@H]4C3)cn1)C2 (racemic) [Example 331, rac-N-(4-(3,3-dimethylureido)benzyl)-5-(5-((3aR,6aR)-hexahydro-2H-furo[2,3-c]pyrrole-5-carbonyl)pyridin-2-yl)-1-isopropyl-4,5,6,7-tetrahydro-1H-pyrazolo[4,3-c]pyridine-3-carboxamide] | 606 |
| CC(C)n1nc(C(=O)NCc2ccc(NC(=O)N3CCN(C)CC3)cc2)c2c1C(C(F)(F)F)CN(c1ccc(C(=O)N(C)C)cn1)C2 (single isomer, unassigned) [Example 692, rel-(R or S)-5-(5-(dimethylcarbamoyl)pyridin-2-yl)-1-isopropyl-N-(4-(4-methylpiperazine-1-carboxamido)benzyl)-7-(trifluoromethyl)-4,5,6,7-tetrahydro-1H-pyrazolo[4,3-c]pyridine-3-carboxamide] | 0.3 |
| CC(C)n1nc(C(=O)NCc2ccc(NC(=O)N3CCN4CCC[C@@H]4C3)cc2)c2c1[C@@H](C)CN(c1ccc(C(=O)N(C)C)cn1)C2 [Example 691, (S)-5-(5-(dimethylcarbamoyl)pyridin-2-yl)-1-isopropyl-7-methyl-N-(4-((R)-octahydropyrrolo[1,2-a]pyrazine-2-carboxamido)benzyl)-4,5,6,7-tetrahydro-1H-pyrazolo[4,3-c]pyridine-3-carboxamide] | 1 |
| CC(=O)N[C@H]1CCN(C(=O)c2ccc(N3CCc4c(c(C(=O)NCc5ccc(NC(=O)N(C)C)cc5)nn4C(C)C)C3)nc2)C1 [Example 193, (S)-5-(5-(3-Acetamidopyrrolidine-1-carbonyl)pyridin-2-yl)-N-(4-(3,3-dimethylureido)benzyl)-1-isopropyl-4,5,6,7-tetrahydro-1H-pyrazolo[4,3-c]pyridine-3-carboxamide] | 372 |
| CC(C)n1nc(C(=O)NCc2ccc(NC(=O)N3CCN(C)CC3)cc2)c2c1[C@@H](C)CN(c1ccc3c(c1)CCCN(C)C3=O)C2 [Example 651, (S)-1-isopropyl-7-methyl-5-(2-methyl-1-oxo-2,3,4,5-tetrahydro-1H-benzo[c]azepin-7-yl)-N-(4-(4-methylpiperazine-1-carboxamido)benzyl)-4,5,6,7-tetrahydro-1H-pyrazolo[4,3-c]pyridine-3-carboxamide] | 1 |
| CC(C)n1nc(C(=O)NCc2ccc(NC(=O)N(C)C)cc2)c2c1CCN(c1ccc(C(=O)N3CCn4nccc4C3)cn1)C2 [Example 425, N-(4-(3,3-dimethylureido)benzyl)-1-isopropyl-5-(5-(4,5,6,7-tetrahydropyrazolo[1,5-a]pyrazine-5-carbonyl)pyridin-2-yl)-4,5,6,7-tetrahydro-1H-pyrazolo[4,3-c]pyridine-3-carboxamide] | 34 |
| CC(C)n1nc(C(=O)NCc2ccc(NC(=O)N(C)C)cc2)c2c1CCN(c1ccc(C(=O)N3CC(=O)NC(C)(C)C3)cn1)C2 [Example 294, 5-(5-(3,3-dimethyl-5-oxopiperazine-1-carbonyl)pyridin-2-yl)-N-(4-(3,3-dimethylureido)benzyl)-1-isopropyl-4,5,6,7-tetrahydro-1H-pyrazolo[4,3-c]pyridine-3-carboxamide] | 961 |
| CC(C)n1nc(C(=O)NCc2ccc(NC(=O)N(C)C)cc2)c2c1CCN(c1ccc(C(=O)N3Cc4cnn(C)c4C3)cn1)C2 [Example 363, N-(4-(3,3-dimethylureido)benzyl)-1-isopropyl-5-(5-(1-methyl-1,4,5,6-tetrahydropyrrolo[3,4-c]pyrazole-5-carbonyl)pyridin-2-yl)-4,5,6,7-tetrahydro-1H-pyrazolo[4,3-c]pyridine-3-carboxamide] | 7 |
| CC(C)n1nc(C(=O)NCc2ccc(NC(=O)N3CCN(C)[C@H](C)C3)cc2)c2c1[C@@H](C)CN(c1ccc(C(=O)N(C)C)cc1)C2 [Example 743, (S)-5-(4-(dimethylcarbamoyl)phenyl)-N-(4-((R)-3,4-dimethylpiperazine-1-carboxamido)benzyl)-1-isopropyl-7-methyl-4,5,6,7-tetrahydro-1H-pyrazolo[4,3-c]pyridine-3-carboxamide] | 1 |
| CO[C@@H]1CN(C(=O)c2ccc(N3CCc4c(c(C(=O)NCc5ccc(NC(=O)N(C)C)cc5)nn4C(C)C)C3)nc2)C[C@H]1OC (racemic) [Example 333, rac-5-(5-((3R,4R)-3,4-dimethoxypyrrolidine-1-carbonyl)pyridin-2-yl)-N-(4-(3,3-dimethylureido)benzyl)-1-isopropyl-4,5,6,7-tetrahydro-1H-pyrazolo[4,3-c]pyridine-3-carboxamide] | 2800 |
| CC(C)n1nc(C(=O)NCc2ccc(NC(=O)N3CC(C)(N(C)C)C3)cc2)c2c1[C@@H](C)CN(c1ccc(C(=O)N(C)C)cc1)C2 [Example 748, (S)-N-(4-(3-(dimethylamino)-3-methylazetidine-1-carboxamido)benzyl)-5-(4-(dimethylcarbamoyl)phenyl)-1-isopropyl-7-methyl-4,5,6,7-tetrahydro-1H-pyrazolo[4,3-c]pyridine-3-carboxamide] | 1 |
| CC(C)n1nc(C(=O)NCc2ccc(NC(=O)N3CCN(C)CC3)cc2)c2c1C(C(F)(F)F)CN(c1ccc(C(=O)N(C)C)cc1)C2 (racemic) [Example 703, rac-(R)-5-(4-(dimethylcarbamoyl)phenyl)-1-isopropyl-N-(4-(4-methylpiperazine-1-carboxamido)benzyl)-7-(trifluoromethyl)-4,5,6,7-tetrahydro-1H-pyrazolo[4,3-c]pyridine-3-carboxamide] | 1 |
| CC(=O)N1CCCN(C(=O)c2ccc(N3CCc4c(c(C(=O)NCc5ccc(NC(=O)N(C)C)cc5)nn4C(C)C)C3)nc2)CC1 [Example 200, 5-(5-(4-acetyl-1,4-diazepane-1-carbonyl)pyridin-2-yl)-N-(4-(3,3-dimethylureido)benzyl)-1-isopropyl-4,5,6,7-tetrahydro-1H-pyrazolo[4,3-c]pyridine-3-carboxamide] | 363 |
| CCO[C@H]1CCN(C(=O)c2ccc(N3CCc4c(c(C(=O)NCc5ccc(NC(=O)N(C)C)cc5)nn4C(C)C)C3)nc2)C1 [Example 201, (S)-N-(4-(3,3-dimethylureido)benzyl)-5-(5-(3-ethoxypyrrolidine-1-carbonyl)pyridin-2-yl)-1-isopropyl-4,5,6,7-tetrahydro-1H-pyrazolo[4,3-c]pyridine-3-carboxamide] | 343 |
| CC(C)n1nc(C(=O)NCc2ccc(NC(=O)N3CCC[C@H](N(C)C)C3)cc2)c2c1[C@@H](C)CN(c1ccc(C(=O)N(C)C)cc1)C2 [Example 755, (S)-N-(4-((S)-3-(dimethylamino)piperidine-1-carboxamido)benzyl)-5-(4-(dimethylcarbamoyl)phenyl)-1-isopropyl-7-methyl-4,5,6,7-tetrahydro-1H-pyrazolo[4,3-c]pyridine-3-carboxamide] | 2 |
| Cc1nc2c(o1)CCN(C(=O)c1ccc(N3CCc4c(c(C(=O)NCc5ccc(NC(=O)N(C)C)cc5)nn4C(C)C)C3)nc1)C2 [Example 423, N-(4-(3,3-dimethylureido)benzyl)-1-isopropyl-5-(5-(2-methyl-4,5,6,7-tetrahydrooxazolo[4,5-c]pyridine-5-carbonyl)pyridin-2-yl)-4,5,6,7-tetrahydro-1H-pyrazolo[4,3-c]pyridine-3-carboxamide] | 29 |
| Cc1nc2c(n1C)CCN(C(=O)c1ccc(N3CCc4c(c(C(=O)NCc5ccc(NC(=O)N(C)C)cc5)nn4C(C)C)C3)nc1)C2 [Example 409, 5-(5-(1,2-dimethyl-4,5,6,7-tetrahydro-1H-imidazo[4,5-c]pyridine-5-carbonyl)pyridin-2-yl)-N-(4-(3,3-dimethylureido)benzyl)-1-isopropyl-4,5,6,7-tetrahydro-1H-pyrazolo[4,3-c]pyridine-3-carboxamide] | 24 |
| CC(C)n1nc(C(=O)NCc2ccc(NC(=O)N(C)C)cc2)c2c1CCN(c1ccc(C(=O)N3CCn4nncc4C3)cn1)C2 [Example 427, N-(4-(3,3-dimethylureido)benzyl)-1-isopropyl-5-(5-(4,5,6,7-tetrahydro-[1,2,3]triazolo[1,5-a]pyrazine-5-carbonyl)pyridin-2-yl)-4,5,6,7-tetrahydro-1H-pyrazolo[4,3-c]pyridine-3-carboxamide] | 282 |
| CC(C)n1nc(C(=O)NCc2ccc(NC(=O)N3CCN(C)CC3)cc2)c2c1C(C(F)(F)F)CN(c1ccc(C(=O)N(C)C)cc1)C2 (single isomer, unassigned) [Example 702, rel-(R or S)-5-(4-(dimethylcarbamoyl)phenyl)-1-isopropyl-N-(4-(4-methylpiperazine-1-carboxamido)benzyl)-7-(trifluoromethyl)-4,5,6,7-tetrahydro-1H-pyrazolo[4,3-c]pyridine-3-carboxamide] | 10 |
